37 compounds from patent publication US7939526B2, “Sulfone substituted imidazo ring ethers” (3M Innovative Properties Company, priority 2003, dated 2011) can be followed below.

One may read the melting point as the temperature of the solid-liquid transition. As for `Cc1nc2c(N)nc3ccccc3c2n1CCOCCS(C)(=O)=O` [Example 1, 2-Methyl-1-{2-[2-(methylsulfonyl)ethoxy]ethyl}-1H-imidazo[4,5-c]quinolin-4-amine], the melting point was 214 to 217 °C.

`CCCCc1nc2c(N)nc3ccccc3c2n1CCOCCS(C)(=O)=O` [Example 2, 2-Butyl-1-{2-[2-(methylsulfonyl)ethoxy]ethyl}-1H-imidazo[4,5-c]quinolin-4-amine] returned a melting point of 168 to 170 °C.

For `CS(=O)(=O)CCOCCn1cnc2c(N)nc3ccccc3c21` [Example 3, 1-{2-[2-(Methylsulfonyl)ethoxy]ethyl}-1H-imidazo[4,5-c]quinolin-4-amine], the melting point lay in the range of 145 to 148 °C.

On to `CCCc1nc2c(N)nc3ccccc3c2n1CCOCCS(C)(=O)=O` [Example 4, 1-{2-[2-(Methylsulfonyl)ethoxy]ethyl}-2-propyl-1H-imidazo[4,5-c]quinolin-4-amine], for which the melting point lay in the range of 150 to 152 °C.

In turn, `CCc1nc2c(N)nc3ccccc3c2n1CCOCCS(C)(=O)=O` [Example 5, 2-Ethyl-1-{2-[2-(methylsulfonyl)ethoxy]ethyl}-1H-imidazo[4,5-c]quinolin-4-amine] yielded a melting point of 160 to 163 °C.

For the compound `CCOCc1nc2c(N)nc3ccccc3c2n1CCOCCS(C)(=O)=O` [Example 6, 2-(Ethoxymethyl)-1-{2-[2-(methylsulfonyl)ethoxy]ethyl}-1H-imidazo[4,5-c]quinolin-4-amine], the melting point was 158 to 160 °C.

In turn, `COCCc1nc2c(N)nc3ccccc3c2n1CCOCCS(C)(=O)=O` [Example 7, 2-(2-Methoxyethyl)-1-{2-[2-(methylsulfonyl)ethoxy]ethyl}-1H-imidazo[4,5-c]quinolin-4-amine] came in with a melting point of 142 to 144 °C.

`CCOCc1nc2c(N)nc3ccccc3c2n1CC(C)(C)OCCS(=O)(=O)c1ccccc1` [Example 8, 2-Ethoxymethyl-1-{2-[2-(phenylsulfonyl)ethoxy]-2-methylpropyl}-1H-imidazo[4,5-c]quinolin-4-amine] had a melting point of 187 to 189 °C.

`CCOCc1nc2c(N)nc3ccccc3c2n1CC(C)(C)OCCS(C)(=O)=O` [Example 9, 2-Ethoxymethyl-1-{2-[2-(methylsulfonyl)ethoxy]-2-methylpropyl}-1H-imidazo[4,5-c]quinolin-4-amine] came in with a melting point of 183 to 185 °C.

`Cc1nc2c(N)nc3c(c2n1CCOCCS(C)(=O)=O)CCCC3` [Example 10, 1-{2-[2-(Methylsulfonyl)ethoxy]ethyl}-2-methyl-6,7,8,9-tetrahydro-1H-imidazo[4,5-c]quinolin-4-amine] yielded a melting point of 173 to 175 °C.

Turning to `CCCc1nc2c(N)nc3c(c2n1CCOCCS(C)(=O)=O)CCCC3` [Example 11, 1-{2-[2-(Methylsulfonyl)ethoxy]ethyl}-2-propyl-6,7,8,9-tetrahydro-1H-imidazo[4,5-c]quinolin-4-amine], the melting point fell in the range of 153 to 155 °C.

The compound `CCc1nc2c(N)nc3c(c2n1CCOCCS(C)(=O)=O)CCCC3` [Example 12, 2-Ethyl-1-{2-[2-(methylsulfonyl)ethoxy]ethyl}-6,7,8,9-tetrahydro-1H-imidazo[4,5-c]quinolin-4-amine] showed a melting point of 146 to 148 °C.

`CCCc1nc2c(N)nc3ccccc3c2n1CCOCCCS(=O)(=O)c1ccccc1` [Example 13, 1-{2-[3-(Phenylsulfonyl)propoxy]ethyl}-2-propyl-1H-imidazo[4,5-c]quinolin-4-amine]: the melting point lay within 160 to 161 °C.

Consider `CCCc1nc2c(N)nc3ccccc3c2n1CCOCCCS(=O)(=O)C(C)C` [Example 14, 1-(2-{3-[(1-Methylethyl)sulfonyl]propoxy}ethyl)-2-propyl-1H-imidazo[4,5-c]quinolin-4-amine], for which the melting point is 176 to 177 °C.

`CCCc1nc2c(N)nc3ccccc3c2n1CCOCCCS(=O)(=O)c1ccccc1C` [Example 15, 1-(2-{3-[(2-Methylphenyl)sulfonyl]propoxy}ethyl)-2-propyl-1H-imidazo[4,5-c]quinolin-4-amine] returned a melting point of 159 to 160 °C.

With `CCCc1nc2c(N)nc3ccccc3c2n1CCOCCCS(=O)(=O)c1ccccn1` [Example 16, 2-Propyl-1-(2-{3-[(pyridin-2-yl)sulfonyl]propoxy}ethyl)-1H-imidazo[4,5-c]quinolin-4-amine], the melting point is 150 to 151 °C.

For the compound `CCCc1nc2c(N)nc3ccccc3c2n1CCOCCCSC` [Example 17, 1-{2-[3-(Methylthio)propoxy]ethyl}-2-propyl-1H-imidazo[4,5-c]quinolin-4-amine], the melting point was 99 to 101 °C.

Consider `CCCc1nc2c(N)nc3ccccc3c2n1CCOCCC[S+](C)[O-]` (stereo not shown) [Example 18], for which the melting point fell in the range of 148 to 151 °C.

Compound `CCCc1nc2c(N)nc3ccccc3c2n1CCOCCCS(C)(=O)=O` [Example 19, 1-{2-[3-(Methylsulfonyl)propoxy]ethyl}-2-propyl-1H-imidazo[4,5-c]quinolin-4-amine] registered a melting point of 149 to 151 °C.

As for `CCCCCCCCCCS(=O)(=O)CCCOCCn1c(CCC)nc2c(N)nc3ccccc3c21` [Example 20, 1-{2-[3-(Decane-1-sulfonyl)propoxy]ethyl}-2-propyl-1H-imidazo[4,5-c]quinolin-4-amine], the melting point lay in the range of 84 to 86 °C.

In turn, `Cc1nc2c(N)nc3ccccc3c2n1CC(C)(C)OCCS(C)(=O)=O` [Example 21, 2-Methyl-1-{2-methyl-2-[2-(methylsulfonyl)ethoxy]propyl}-1H-imidazo[4,5-c]quinolin-4-amine] returned a melting point of 253 to 255 °C.

Turning to `CCCc1nc2c(N)nc3ccccc3c2n1CC(C)(C)OCCS(C)(=O)=O` [Example 22, 1-{2-Methyl-2-[2-(methylsulfonyl)ethoxy]propyl}-2-propyl-1H-imidazo[4,5-c]quinolin-4-amine], the melting point is 203 to 206 °C.

On to `CCOCc1nc2c(N)nc3ccccc3c2n1CC1(OCCS(C)(=O)=O)CCCC1` [Example 23, 2-(Ethoxymethyl)-1-({1-[2-(methylsulfonyl)ethoxy]cyclopentyl}methyl)-1H-imidazo[4,5-c]quinolin-4-amine], for which the melting point was in the range of 163 to 165 °C.

Consider `CCOCc1nc2c(N)nc3ccccc3c2n1CC1(OCCS(C)(=O)=O)CCCCC1` [Example 24, 2-(Ethoxymethyl)-1-({1-[2-(methylsulfonyl)ethoxy]cyclohexyl}methyl)-1H-imidazo[4,5-c]quinolin-4-amine], for which the melting point was 159 to 161 °C.

`CCCCCCc1nc2c(N)nc3ccccc3c2n1CCOCCS(C)(=O)=O` [Example 25, 2-Hexyl-1-{2-[2-(methylsulfonyl)ethoxy]ethyl}-1H-imidazo[4,5-c]quinolin-4-amine] showed a melting point of 158 to 160 °C.

`CCOCc1nc2c(N)nc3ccccc3c2n1CC1(OCCS(C)(=O)=O)CCC1` [Example 26, 2-(Ethoxymethyl)-1-({1-[2-(methylsulfonyl)ethoxy]cyclobutyl}methyl)-1H-imidazo[4,5-c]quinolin-4-amine]: the melting point fell in the range of 221 to 223 °C.

Take `CCOCc1nc2c(N)nc3c(c2n1CC1(OCCS(C)(=O)=O)CCC1)CCCC3` [Example 27, 2-(Ethoxymethyl)-1-({1-[2-(methylsulfonyl)ethoxy]cyclobutyl}methyl)-6,7,8,9-tetrahydro-1H-imidazo[4,5-c]quinolin-4-amine]: the melting point was 186 to 188 °C.

As for `CCOCc1nc2c(N)nc3c(c2n1CC(C)(C)OCCS(C)(=O)=O)CCCC3` [Example 28, 2-(Ethoxymethyl)-1-{2-methyl-2-[2-(methylsulfonyl)ethoxy]propyl}-6,7,8,9-tetrahydro-1H-imidazo[4,5-c]quinolin-4-amine], the melting point fell in the range of 150 to 153 °C.

`CC(C)(Cn1cnc2c(N)nc3ccccc3c21)OCCS(C)(=O)=O` [Example 29, 1-{2-Methyl-2-[2-(methylsulfonyl)ethoxy]propyl}-1H-imidazo[4,5-c]quinolin-4-amine]: the melting point was in the range of 261 to 264 °C.

As to `Cc1nc2c(N)nc3c(c2n1CC(C)(C)OCCS(C)(=O)=O)CCCC3` [Example 30, 2-Methyl-1-{2-methyl-2-[2-(methylsulfonyl)ethoxy]propyl}-6,7,8,9-tetrahydro-1H-imidazo[4,5-c]quinolin-4-amine], the melting point is 226 to 229 °C.

Consider `CC(C)(Cn1cnc2c(N)nc3c(c21)CCCC3)OCCS(C)(=O)=O` [Example 31, 1-{2-Methyl-2-[2-(methylsulfonyl)ethoxy]propyl}-6,7,8,9-tetrahydro-1H-imidazo[4,5-c]quinolin-4-amine], for which the melting point was 219 to 223 °C.

`CCCCc1nc2c(N)nc3ccccc3c2n1CC(C)(C)OCCS(C)(=O)=O` [Example 32, 2-Butyl-1-{2-methyl-2-[2-(methylsulfonyl)ethoxy]propyl}-1H-imidazo[4,5-c]quinolin-4-amine] had a melting point of 196 to 198 °C.

`CCCCc1nc2c(N)nc3c(c2n1CC(C)(C)OCCS(C)(=O)=O)CCCC3` [Example 33, 2-Butyl-1-{2-methyl-2-[2-(methylsulfonyl)ethoxy]propyl}-6,7,8,9-tetrahydro-1H-imidazo[4,5-c]quinolin-4-amine] registered a melting point of 146 to 148 °C.

In the case of `CCOCc1nc2c(N)nc3ccccc3c2n1CC1(OCCS(C)(=O)=O)CC1` [Example 34, 2-(Ethoxymethyl)-1-({1-[2-(methylsulfonyl)ethoxy]cyclopropyl}methyl)-1H-imidazo[4,5-c]quinolin-4-amine], the melting point lay in the range of 169 to 171 °C.

Take `CCCc1nc2c(N)nc3c(c2n1CC(C)(C)OCCS(C)(=O)=O)CCCC3` [Example 35, 1-{2-Methyl-2-[2-(methylsulfonyl)ethoxy]propyl}-2-propyl-6,7,8,9-tetrahydro-1H-imidazo[4,5-c]quinolin-4-amine]: the melting point fell in the range of 188 to 190 °C.

The compound `CCc1nc2c(N)nc3ccccc3c2n1CC(C)(C)OCCS(C)(=O)=O` [Example 36, 2-Ethyl-1-{2-methyl-2-[2-(methylsulfonyl)ethoxy]propyl}-1H-imidazo[4,5-c]quinolin-4-amine] gave a melting point of 206 to 209 °C.

`CCc1nc2c(N)nc3c(c2n1CC(C)(C)OCCS(C)(=O)=O)CCCC3` [Example 37, 2-Ethyl-1-{2-methyl-2-[2-(methylsulfonyl)ethoxy]propyl}-6,7,8,9-tetrahydro-1H-imidazo[4,5-c]quinolin-4-amine] registered a melting point of 225 to 227 °C.
